In general, IC50 refers to the concentration at which inhibition is half-maximal. A lower IC50 goes with greater potency in that assay.

Data on one molecule can be found in ChEMBL document CHEMBL1140309, “p53 Activation by small molecules: application in oncology” (J Med Chem, 2005).

In this test the target is Tumour suppressor p53/oncoprotein Mdm2 (Homo sapiens, UniProt P04637+Q00987). Nature of the test: Inhibitory activity against MDM2 (murine double minute-2 gene) binding to p53. The class given is protein assay.
Sequence of Tumour suppressor p53/oncoprotein Mdm2 (P04637 whole entry): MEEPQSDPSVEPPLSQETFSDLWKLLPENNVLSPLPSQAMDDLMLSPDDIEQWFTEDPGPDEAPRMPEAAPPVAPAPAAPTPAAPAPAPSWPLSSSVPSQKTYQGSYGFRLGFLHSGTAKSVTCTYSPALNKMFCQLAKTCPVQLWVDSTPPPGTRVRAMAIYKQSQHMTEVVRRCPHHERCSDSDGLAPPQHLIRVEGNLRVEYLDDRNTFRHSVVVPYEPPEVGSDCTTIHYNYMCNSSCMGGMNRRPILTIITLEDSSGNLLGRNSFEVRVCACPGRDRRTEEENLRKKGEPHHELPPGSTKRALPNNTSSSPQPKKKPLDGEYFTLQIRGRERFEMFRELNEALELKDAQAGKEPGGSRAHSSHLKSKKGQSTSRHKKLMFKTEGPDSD
Sequence of Tumour suppressor p53/oncoprotein Mdm2 (Q00987 whole entry): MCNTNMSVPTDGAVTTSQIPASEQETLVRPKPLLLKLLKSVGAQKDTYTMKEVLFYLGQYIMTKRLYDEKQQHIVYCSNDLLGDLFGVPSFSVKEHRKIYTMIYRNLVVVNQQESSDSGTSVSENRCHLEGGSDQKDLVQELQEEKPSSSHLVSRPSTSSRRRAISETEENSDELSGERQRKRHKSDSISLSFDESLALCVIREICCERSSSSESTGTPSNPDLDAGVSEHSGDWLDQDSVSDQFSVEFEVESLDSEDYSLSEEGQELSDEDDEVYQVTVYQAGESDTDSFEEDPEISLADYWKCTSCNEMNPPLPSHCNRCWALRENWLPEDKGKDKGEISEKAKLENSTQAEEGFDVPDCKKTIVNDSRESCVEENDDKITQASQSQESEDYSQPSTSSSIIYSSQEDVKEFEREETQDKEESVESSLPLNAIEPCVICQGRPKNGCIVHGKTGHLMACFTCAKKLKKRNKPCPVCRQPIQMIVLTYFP

With `CC(C)Oc1ccc(C(=O)NS(=O)(=O)c2ccc(NN=C3C(=O)N(c4ccccc4)N(c4ccccc4)C3=O)cc2)cc1`, the IC50 came to 30 µM.
